Two compounds from patent publication US20090325805A1, “Cationic surfactant based adjuvant systems for some herbicides that increase pH, herbicide solubility and performance” (priority 2004, published 2009) can be followed below.

Common to all, as to type: in vivo
For assay [1], the system named is Downy Brome (Bromus tectorum). Briefly: Herbicide efficacy (percent control) on downy brome with differing spray adjuvants (Table 2). Also on record: concentration or dose not given beside the values. The settings on record: for Downy Brome % Control 21 DAT: 21 days after treatment; for Downy Brome % Control 68 DAT: 68 days after treatment. The text has this:
(§1) This effect has been seen with both wild oat (Avena fatua) Table 1 and downy brome (Bromus tectorum) Table 2. The increase in activity has been seen with different formulation of tallow amine cat-ionic surfactant and a pH increasing additive (Table 3). [table]

In assay [2] the test system is Wild Oat (Avena fatua). Briefly: Post-emergence herbicide efficacy (percent control) on wild oats with differing spray adjuvants. The settings on record: Sulfosulfuron 0.66 oz/Acre; for Wild Oat % Control 14 DAT: 14 days after treatment; for Wild Oat % Control 28 DAT: 28 days after treatment. The source says:
This invention pertains to the unexpected increase in activity seen when sulfosulfuron was applied with a cat-ionic surfactant plus a pH adjustor that increased the pH to a pH of 9-10.5 (Table 1). As opposed to the increase in activity that was predicted to happen when applied with an oil based or non-ionic surfactant with a pH adjustor as taught by Nalewaja et. al. This effect has been seen with both wild oat (Avena fatua) Table 1 and downy brome (Bromus tectorum) Table 2. The increase in activity has been seen with different formulation of tallow amine cat-ionic surfactant and a pH increasing additive (Table 3). [table]

Assay [3] has as its system Downy Brome (Bromus tectorum). The experiment in a line: Sulfosulfuron efficacy (percent control) on downy brome with differing tallow amine adjuvant formulations (Table 3). On the set-up: concentration or dose not given beside the values. The settings on record: for Downy Brome % Control 17 DAT: 17 days after treatment; for Downy Brome % Control 87 DAT: 87 days after treatment.
Excerpt: as §1

Setting [4] is: adjuvant AQ117 (tallow amine plus aqua ammonia).
Where [5] appears, read: adjuvant R-11 (non-ionic surfactant).
Setting [6] is: adjuvant AQ118 (tallow amine plus aqua ammonia).
Setting [7] is: adjuvant Quad 7 (crop oil plus nitrogen fertilizer).
The mark [8] stands for this setting: adjuvant AQ103 (tallow amine plus aqua ammonia).
The mark [9] stands for this setting: adjuvant AQ104 (tallow amine plus aqua ammonia).

For the compound `CCS(=O)(=O)c1nc2ccccn2c1S(=O)(=O)NC(=O)Nc1nc(OC)cc(OC)n1` [Sulfosulfuron], the “Downy Brome % Control 21 DAT” value turned out to be 78% in assay [1] (setting [4]) and 52% in assay [1] (setting [5]). Also, the figures for the “Downy Brome % Control 68 DAT” value in assay [1] (setting [4]) and in assay [1] (setting [5]) were 97% and 62%, respectively. The “Wild Oat % Control 14 DAT” value is listed as 75% in assay [2] (setting [6]) and 48% in assay [2] (setting [7]). In addition, the “Wild Oat % Control 28 DAT” value in assay [2] (setting [6]) was found to be 98%; in assay [2] (setting [7]), 62%. Further, the “Downy Brome % Control 17 DAT” value in assay [3] (setting [8]) was 30%; in assay [3] (setting [9]), 30%; in assay [3] (setting [5]), 5%. The entries for the “Downy Brome % Control 87 DAT” value in assay [3] (setting [8]), in assay [3] (setting [9]) and in assay [3] (setting [5]) were 92%, 90% and 77%, respectively.

`CCCOc1nn(C(=O)[N-]S(=O)(=O)c2ccccc2C(=O)OC)c(=O)n1C.[Na+]` [Propoxycarbazone, Propoxycarbazone-sodium]: in assay [1] (setting [4]), the “Downy Brome % Control 21 DAT” value was 73% and the “Downy Brome % Control 68 DAT” value is 90%. In assay [1] (setting [5]), the “Downy Brome % Control 21 DAT” value was determined as 52% and the “Downy Brome % Control 68 DAT” value is 67%.
